# According to US11026426B2, “Oxadiazole and phenol derivatives as antibacterial and/or herbicidal agents” (NORTHERN ILLINOIS RESEARCH FOUNDATION, priority 2017, dated 2021):
# Like-named read-outs stand apart in the source and are kept apart here.
# Columns and labels:
# [1] = target: T1, Mycobacterium tuberculosis IspD (MtIspD) (Mycobacterium tuberculosis, UniProt P9WKG9); assay: Thermal shift assay against MtIspD; format: binding
# T1 sequence (P9WKG9 1-231): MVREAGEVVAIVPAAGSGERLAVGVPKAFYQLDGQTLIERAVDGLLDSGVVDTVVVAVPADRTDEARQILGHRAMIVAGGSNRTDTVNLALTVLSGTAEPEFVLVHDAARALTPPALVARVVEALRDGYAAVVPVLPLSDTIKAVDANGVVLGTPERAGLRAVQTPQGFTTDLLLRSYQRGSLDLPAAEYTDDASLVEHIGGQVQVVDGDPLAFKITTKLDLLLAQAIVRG
# [2] = target: Lycopersicon esculentum IspE (LeIspE) (Solanum lycopersicum, UniProt P93841); assay: Thermal shift assay against LeIspE; format: binding
# [3] = tested on: lettuce seeds; assay: Lettuce leaf assay; format: in vivo; design: key: 0 (no effect); 5(complete inhibition or bleaching); details: ranking 0-5
# Description: The lettuce leaf assay is a qualitative assay used to determine the relative effectiveness of the test compounds at inhibition of germination of seeds and root development as well as causing bleaching of leaves. Isoprenoid synthesis is vital in plants as isoprene-product gibberellins are a class of growth hormones in plants responsible for stimulating cell elongation and division. In addition, some carotenoids are involved in photosynthesis as components of the electron transport chain. MEP pathway inhibitors have the potential to prevent synthesis of these necessary cellular components and growth hormones resulting in inhibition of germination and root development as well as causing chlorosis, or bleaching in the leaves. The lettuce leaf assay, explores the effects of compounds as potential MEP pathway inhibitors by evaluating the effect on bleaching, root development, and germination of lettuce seeds, which all rely on isoprenoid biosynthesis. […] The assay is a qualitative assay and the effects are given rankings from 0 (no effect) to 5 (complete inhibition or bleaching). In this assay, compounds are dissolved in a volatile organic solvent and applied to filter paper in a petri dish. The solvent is allowed to evaporate and lettuce seeds are applied followed by the addition of 5 mL of water to obtain the necessary concentrations. Seeds are allowed to grow and they are observed on day 3 and day 4 for evaluation.
# [4] = target: AtIspD (Arabidopsis thaliana, UniProt P69834); assay: University of Hamburg photometric enzymatic inhibition assay AtIspD; format: biochemical
# Description: (§1) Compounds were subjected to a photometric enzymatic assay to test for inhibition of the plant enzymes Arabidopsis thaliana IspD and IspF, and IspE from Lycopersicon esculentum.
# The procedure for AtIspD enzymatic inhibition assay, was performed by making an assay mixture of 100 mM Tris hydrochloride at pH 8.0 with 10 mM MgCl2, 1 mM dithiothreitol, 2.5 mM potassium phosphoenol pyruvate, 2.1 mM CTP, 2 mM ATP, 1 mM of (2R,3S)-2,3-dihydroxy-4-oxopentyl phosphate, 460 μM NADH, 1.1% (v/v) DMSO, 0.4 U IspE, 1 U lactate dehydrogenase, 1 U pyruvate kinase and 2.4 mU IspD in 180 μL of solution. Solutions were incubated at 27° C. and monitored photometrically. By preparing the assay mixture with a large excess of IspE compared to IspD, any inhibition of IspE by the test inhibitor would be insignificant compared to IspD and therefore the rate of the reaction is determined by IspD activity.
# [5] = target: LeIspE (Solanum lycopersicum, UniProt P93841); assay: University of Hamburg photometric enzymatic inhibition assay LeIspE; format: biochemical, Lycopersicon esculentum
# Description: as §1
# The IspE assay conditions were very similar to the IspD assay in which the assay mixture was composed of 100 mM Tris hydrochloride at pH 8.0 with 10 mM MgCl2, 1 mM dithiothreitol, 2.5 mM potassium phosphoenol pyruvate, 2 mM ATP, 1 mM of 4-Diphosphocytidyl-2-C-methylerythritol, 460 μM NADH, 1.1% (v/v) DMSO, 2.4 mU IspE, 1 U lactate dehydrogenase, 1 U pyruvate kinase in 180 μL of solution. Solutions were incubated at 27° C. and monitored photometrically.
# [6] = target: AtIspF (Arabidopsis thaliana, UniProt Q9CAK8); assay: University of Hamburg photometric enzymatic inhibition assay AtIspF; format: biochemical
# Description: as §1
# The IspF assay mixture conditions were as follows: 100 mM Tris hydrochloride at pH 8.0 with 10 mM MgCl2, 1 mM dithiothreitol, 2.5 mM potassium phosphoenol pyruvate, 2 mM ATP, 1 mM of 4-diphosphocytidyl-2C methylerythritol 2-phosphate, 460 μM NADH, 1.1% (v/v) DMSO, 0.5 U CMP kinase, 2.4 mU IspF, 1 U lactate dehydrogenase, 1 U pyruvate kinase in 180 μL of solution. Solutions were incubated at 27° C. and monitored photometrically.
# [7] = tested on: Burkholderia thailandensis; format: cell-based; details: preliminary screening; for BT score: score 0-3
# [8] = tested on: Mycobacterium smegmatis; assay: Antibacterial preliminary screening MS; format: cell-based; details: for MS score: score 0-3
# [9] = tested on: Corynebacterium xerosis; assay: Antibacterial preliminary screening CX; format: cell-based; details: score 0-3; further: key: 0 represents no inhibition; 3 is comparable to commercial antibiotic control
# [10] = tested on: Corynebacterium pseudodiphtheriae; assay: Antibacterial preliminary screening CP; format: cell-based; details: score 0-3;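 further: 0 is no inhibition and 3 matches the commercial antibiotic control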
# [11] = tested on: Escherichia coli; assay: Antibacterial preliminary screening EC; format: cell-based; details: score 0-3; further: key: 0 represents no inhibition; 3 is comparable to commercial antibiotic control
# [12] = tested on: Klebsiella pneumonia; assay: Antibacterial preliminary screening KP; format: cell-based; details: score 0-3; further: key: 0 represents no inhibition; 3 is comparable to commercial antibiotic control
# [13] = tested on: Micrococcus luteus; assay: Antibacterial preliminary screening ML; format: cell-based; details: score 0-3; further: key: 0 represents no inhibition; 3 is comparable to commercial antibiotic control
# [14] = tested on: Bacillus cereus; assay: Antibacterial preliminary screening BC; format: cell-based; details: score 0-3
# [15] = tested on: Pseudomonas aeruginosa; assay: Antibacterial preliminary screening PA; format: cell-based; details: score 0-3
# [16] = tested on: Burkholderia thailandensis; format: cell-based
# [17] = tested on: Pseudomonas aeruginosa; assay: Antibacterial assay zone of inhibition Pa; format: cell-based
# [18] = tested on: Micrococcus luteus; assay: Antibacterial assay zone of inhibition Ml; format: cell-based
# [19] = tested on: Klebsiella pneumonia; assay: Antibacterial assay zone of inhibition Kp; format: cell-based
# [20] = tested on: Escherichia coli; assay: Antibacterial assay zone of inhibition Ec; format: cell-based
# [21] = tested on: Bacillus cereus; assay: Antibacterial assay zone of inhibition Bc; format: cell-based
# [22] = tested on: Mycobacterium smegmatis; assay: Antibacterial assay zone of inhibition Ms; format: cell-based
# [23] = tested on: Corynebacterium xerosis; assay: Antibacterial assay zone of inhibition Cx; format: cell-based
# [24] = tested on: Corynebacterium pseudodiphtheriae; assay: Antibacterial assay zone of inhibition Cp; format: cell-based
# Sequence of AtIspD (P69834 62-302): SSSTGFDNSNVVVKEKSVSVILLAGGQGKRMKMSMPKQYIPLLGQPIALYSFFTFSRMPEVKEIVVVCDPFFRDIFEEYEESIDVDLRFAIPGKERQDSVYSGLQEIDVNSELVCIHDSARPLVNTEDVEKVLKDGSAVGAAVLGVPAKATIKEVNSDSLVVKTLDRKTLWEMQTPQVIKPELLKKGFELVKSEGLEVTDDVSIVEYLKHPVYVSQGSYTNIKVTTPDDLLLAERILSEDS
# Sequence of LeIspE (P93841 89-401): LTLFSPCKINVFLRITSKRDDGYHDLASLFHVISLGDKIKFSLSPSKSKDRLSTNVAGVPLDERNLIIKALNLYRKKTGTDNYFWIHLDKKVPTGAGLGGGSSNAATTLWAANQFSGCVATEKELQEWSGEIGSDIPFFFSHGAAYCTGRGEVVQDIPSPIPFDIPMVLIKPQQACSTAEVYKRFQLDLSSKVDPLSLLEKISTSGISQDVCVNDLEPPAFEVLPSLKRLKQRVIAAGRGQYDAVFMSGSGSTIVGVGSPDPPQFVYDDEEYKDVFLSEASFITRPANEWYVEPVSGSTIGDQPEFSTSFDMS
# Sequence of AtIspF (Q9CAK8 53-231): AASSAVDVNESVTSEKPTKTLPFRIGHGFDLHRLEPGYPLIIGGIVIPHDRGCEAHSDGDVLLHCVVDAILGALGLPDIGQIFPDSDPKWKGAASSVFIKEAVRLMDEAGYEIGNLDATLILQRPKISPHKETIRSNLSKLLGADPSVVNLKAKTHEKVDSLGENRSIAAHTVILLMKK
# Sequence of Lycopersicon esculentum IspE (LeIspE) (P93841 89-401): as the sequence (P93841 89-401) above
Structure (SMILES),BT score [7],MS score [8],CX score [9],CP score [10],EC score [11],KP score [12],ML score [13],BC score [14],PA score [15],melting point,IC50 [4],IC50 [5],IC50 [6],Antibacterial Pa zone of inhibition ([17]; 0.1 mM),Antibacterial Pa zone of inhibition ([17]; 0.5 mM),Antibacterial Pa zone of inhibition ([17]; 1 mM),Antibacterial Ml zone of inhibition ([18]; 0.1 mM),Antibacterial Ml zone of inhibition ([18]; 0.5 mM),Antibacterial Ml zone of inhibition ([18]; 1 mM),Antibacterial Kp zone of inhibition ([19]; 0.1 mM),other results
"Clc1ccc(-c2nnc(-c3nc4ccccc4[nH]3)o2)cc1 [HGN-421, 2-(1H-benzo[d]imidazole-2-yl)-5-(4-chlorophenyl)-1,3,4-oxadiazole]",1,1,0,0,0,0,0,0,0,250 to 255 °C,–,–,–,–,–,–,–,–,–,–,MtIspD melting point change [1]: 0.8 °C; MtIspD melting temp [1]: 48.8 °C; LeIspE melting point change [2]: −1.50 °C; LeIspE melting temp [2]: 48.00 °C; Bleaching ([3]; 0.15 mM): 0; Germination ([3]; 0.15 mM): 1; Root Dev. ([3]; 0.15 mM): 0; Bleaching ([3]; 0.3 mM): 0; Germination ([3]; 0.3 mM): 1; Root Dev. ([3]; 0.3 mM): 0; IC50 ([4]; read-out: AtIspD IC50): 88 µM; IC50 ([5]; read-out: LeIspE IC50): 298 ± 49 µM; IC50 ([6]; read-out: AtIspF IC50): 484 ± 95 µM; antibacterial activity against Burkholderia thailandensis [7]: slight antibacterial activity; antibacterial activity against Mycobacterium smegmatis [8]: slight antibacterial activity
"c1ccc(-c2nnc(-c3cc4ccccc4[nH]3)o2)cc1 [HGN-208, 2-(1H-indol-2-yl)-5-phenyl-1,3,4-oxadiazole]",0,0,0,0,0,0,0,0,0,254 to 257 °C,342 ± 42 µM,165 ± 47 µM,> 1000 µM,–,–,–,–,–,–,–,–
"COCc1nnc(-c2cc3ccccc3[nH]2)o1 [HGN-212, 2-(1H-indol-2-yl)-5-(methoxymethyl)-1,3,4-oxadiazole]",0,0,0,0,0,0,0,0,0,152 to 156 °C,> 1000 µM,> 1000 µM,> 1000 µM,–,–,–,–,–,–,–,–
Clc1cccc(OCc2nnc(-c3nc4ccccc4s3)o2)c1 [HGN-835],–,–,–,–,–,–,–,–,–,–,–,–,–,0 millimeters,0 millimeters,0 millimeters,0 millimeters,0 millimeters,14 millimeters,0 millimeters,Antibacterial Bt zone of inhibition ([16]; 0.1 mM): 0 12.5 18 millimeters; Antibacterial Bt zone of inhibition ([16]; 0.5 mM): 0 12.5 18 millimeters; Antibacterial Bt zone of inhibition ([16]; 1 mM): 0 12.5 18 millimeters; Antibacterial Kp zone of inhibition ([19]; 0.5 mM): 14 millimeters; Antibacterial Kp zone of inhibition ([19]; 1 mM): 18 millimeters; Antibacterial Ec zone of inhibition ([20]; 0.1 mM): 0 millimeters; Antibacterial Ec zone of inhibition ([20]; 0.5 mM): 0 millimeters; Antibacterial Ec zone of inhibition ([20]; 1 mM): 0 millimeters; Antibacterial Bc zone of inhibition ([21]; 0.1 mM): 0 millimeters; Antibacterial Bc zone of inhibition ([21]; 0.5 mM): 14 millimeters; Antibacterial Bc zone of inhibition ([21]; 1 mM): 20 millimeters; Antibacterial Ms zone of inhibition ([22]; 0.1 mM): 0 millimeters; Antibacterial Ms zone of inhibition ([22]; 0.5 mM): 0 millimeters; Antibacterial Ms zone of inhibition ([22]; 1 mM): 0 millimeters; Antibacterial Cx zone of inhibition ([23]; 0.1 mM): 0 millimeters; Antibacterial Cx zone of inhibition ([23]; 0.5 mM): 0 millimeters; Antibacterial Cx zone of inhibition ([23]; 1 mM): 0 millimeters; Antibacterial Cp zone of inhibition ([24]; 0.1 mM): 0 millimeters; Antibacterial Cp zone of inhibition ([24]; 0.5 mM): 0 millimeters; Antibacterial Cp zone of inhibition ([24]; 1 mM): 0 millimeters
Cc1cccc(OCc2nnc(-c3nc4ccccc4s3)o2)c1 [HGN-837],–,–,–,–,–,–,–,–,–,–,–,–,–,0 millimeters,0 millimeters,0 millimeters,0 millimeters,6 millimeters,10 millimeters,0 millimeters,Antibacterial Bt zone of inhibition [16]: 0 13 19.5 millimeters; Antibacterial Kp zone of inhibition ([19]; 0.5 mM): 0 millimeters; Antibacterial Kp zone of inhibition ([19]; 1 mM): 0 millimeters; Antibacterial Ec zone of inhibition ([20]; 0.1 mM): 0 millimeters; Antibacterial Ec zone of inhibition ([20]; 0.5 mM): 10 millimeters; Antibacterial Ec zone of inhibition ([20]; 1 mM): 17 millimeters; Antibacterial Bc zone of inhibition ([21]; 0.1 mM): 0 millimeters; Antibacterial Bc zone of inhibition ([21]; 0.5 mM): 13 millimeters; Antibacterial Bc zone of inhibition ([21]; 1 mM): 19 millimeters; Antibacterial Ms zone of inhibition ([22]; 0.1 mM): 0 millimeters; Antibacterial Ms zone of inhibition ([22]; 0.5 mM): 0 millimeters; Antibacterial Ms zone of inhibition ([22]; 1 mM): 0 millimeters; Antibacterial Cx zone of inhibition ([23]; 0.1 mM): 0 millimeters; Antibacterial Cx zone of inhibition ([23]; 0.5 mM): 11 millimeters; Antibacterial Cx zone of inhibition ([23]; 1 mM): 17 millimeters; Antibacterial Cp zone of inhibition ([24]; 0.1 mM): 0 millimeters; Antibacterial Cp zone of inhibition ([24]; 0.5 mM): 0 millimeters; Antibacterial Cp zone of inhibition ([24]; 1 mM): 0 millimeters
"c1ccc2[nH]c(-c3nnc(C4CCC4)o3)cc2c1 [HGN-251, 2-cyclobutyl-5-(1H-indol-2-yl)-1,3,4-oxadiazole]",0,0,0,0,0,0,0,0,0,169 to 173 °C,> 1000 µM,> 1000 µM,> 1000 µM,–,–,–,–,–,–,–,–
